Read-outs that look alike come from different tables or passages of the source. Each block holds one molecule with its values, some of them ahead of it. Bridge positions count the residues as written; N and C are the ends. Square brackets hold non-standard residues; d marks the D form. Peptide text beside a SMILES is read from it. Ala(2-furyl) = N[C@@H](Cc1ccco1)C(=O)O; Orn(iPr) = CC(C)NCCC[C@H](N)C(=O)O; Aad = N[C@@H](CCCC(=O)O)C(=O)O; Orn = NCCC[C@H](N)C(=O)O; Dab = NCC[C@H](N)C(=O)O
Biological target: T1, hV1a receptor (Homo sapiens, UniProt P37288)
T1 construct: expressed in transfected cells; host or cells: HEK-293 cells (transient transfection)
T1 sequence (P37288 whole entry): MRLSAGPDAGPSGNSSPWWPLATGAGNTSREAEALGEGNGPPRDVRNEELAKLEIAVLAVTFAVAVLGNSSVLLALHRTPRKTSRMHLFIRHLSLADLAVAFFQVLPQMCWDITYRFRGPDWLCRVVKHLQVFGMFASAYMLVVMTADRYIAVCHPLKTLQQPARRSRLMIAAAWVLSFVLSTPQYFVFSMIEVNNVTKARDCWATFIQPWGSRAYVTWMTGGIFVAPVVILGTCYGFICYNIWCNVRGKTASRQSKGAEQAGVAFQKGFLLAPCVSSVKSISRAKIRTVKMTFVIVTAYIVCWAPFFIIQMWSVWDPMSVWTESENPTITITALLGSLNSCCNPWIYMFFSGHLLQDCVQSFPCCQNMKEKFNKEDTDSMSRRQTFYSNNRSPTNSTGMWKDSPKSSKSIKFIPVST
Assay: hV1a receptor transcriptional reporter (luciferase) agonist assay in HEK-293 cells
Assay type: cell-based
Description: Agonist activity of compounds on the hV1a receptor was determined in a transcriptional reporter assay by transiently transfecting a hV1a receptor expression DNA into HEK-293 cells in concert with a reporter DNA containing intracellular calcium responsive promoter elements regulating expression of firefly luciferase. See Boss, V., Talpade, D. J., Murphy, T. J. J. Biol. Chem. 1996, May 3; 271(18), 10429-10432 for further guidance on this assay. […] To determine selectivity, compounds were tested in luciferase-based transcriptional reporter assays expressing the human oxytocin (hOT) receptor. Assays for other receptors (hV2, hV1b, rat V1a and rat V2) were also conducted.
The EC50 value given is the geometric mean expressed in nanomol/L (nM). Selectivity values are given as EC50 ratios.

SMILES: CC[C@H](C)[C@@H]1NC(=O)[C@H](Cc2ccccc2)NC(=O)[C@@H](N)CSSC[C@@H](C(=O)N2CCC[C@H]2C(=O)N[C@@H](CCCNC(C)C)C(=O)NCC(N)=O)NC(=O)[C@H](CC(N)=O)NC(=O)[C@H](CCCC(N)=O)NC1=O [Compound 1, [Phe^2, Hgn^4, Orn (i-Pr)^8]VT] (H-CFI[Aad](NH2)NCP[Orn(iPr)]G-NH2; disulfide 1-6; N-terminus assumed)
- EC50: 2.02 nM

SMILES: CC[C@H](C)[C@@H]1NC(=O)[C@H](Cc2ccco2)NC(=O)[C@@H](N)CSSC[C@@H](C(=O)N2CCC[C@H]2C(=O)N[C@@H](CCCN)C(=O)NCC(N)=O)NC(=O)[C@H](CC(N)=O)NC(=O)[C@H](CCC(N)=O)NC1=O [Compound 32] (H-C[Ala(2-furyl)]IQNCP[Orn]G-NH2; disulfide 1-6)
- EC50 (read-out: EC50 hV1a receptor): 2.64 nM

- EC50 (geometric mean, HEK-293 cells transiently transfected, 5 hours exposure, at least three independent experiments, read-out: EC50 hV1a receptor): 2.36 nM
SMILES: CCNC(=O)C[C@@H]1NC(=O)[C@H]([C@@H](C)CC)NC(=O)[C@H](Cc2ccccc2)NC(=O)[C@@H](N)CSSC[C@@H](C(=O)N2CCC[C@H]2C(=O)N[C@@H](CCN)C(=O)NCC(N)=O)NC(=O)[C@H](CC(N)=O)NC1=O [Compound 4, [Phe^2,Asn (Et)^4, Dbu^8]VT] (H-CFID(NHEt)NCP[Dab]G-NH2; disulfide 1-6)

Source: US8778881B2 (priority 2004, dated 2014)
